According to the supplement of paper PMC10307832:

Legend:
Assay in all cases: relative viability (nuclei count vs DMSO), 5 days (fraction); higher = more cells survive
[1] = compound: Cn1c(=O)n(-c2ccc(C(C)(C)C#N)cc2)c2c3cc(-c4cnc5ccccc5c4)ccc3ncc21 [Dactolisib] + O=C(c1cc(Cc2n[nH]c(=O)c3ccccc23)ccc1F)N1CCN(C(=O)C2CC2)CC1 [Olaparib] (partner 8 µM)
Procedure, shortened: (§1)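 Relative viability equals treated-well nuclei counts divided by vehicle-well nuclei counts. Counts came from 4× images of lung cancer cell lines grown in 1536-well plates for 5 days after pin-tool dosing on the day after seeding. Dosing used one drug alone or a fixed anchor-drug dose plus five library-drug doses (not always all listed) in √10 steps, and values are medians of duplicate plates.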

[2] = compound: Cn1c(=O)n(-c2ccc(C(C)(C)C#N)cc2)c2c3cc(-c4cnc5ccccc5c4)ccc3ncc21 [Dactolisib] + CC(=O)c1c(C)c2cnc(Nc3ccc(N4CCNCC4)cn3)nc2n(C2CCCC2)c1=O [Palbociclib] (partner 0.5 µM)
Procedure, shortened: as §1

[3] = compound: Cn1c(=O)n(-c2ccc(C(C)(C)C#N)cc2)c2c3cc(-c4cnc5ccccc5c4)ccc3ncc21 [Dactolisib] + CS(=O)(=O)N1CCN(Cc2cc3nc(-c4cccc5[nH]ncc45)nc(N4CCOCC4)c3s2)CC1 [Pictilisib] (partner 1 µM)
Procedure, shortened: as §1

[4] = compound: C1CCC(CC1)N(CCNCCC2=C3C(=C(C=C2)O)NC(=O)CO3)C(=O)CCNCCC4=CC(=C(C=C4)Cl)Cl [AZ505] + CC(=O)c1c(C)c2cnc(Nc3ccc(N4CCNCC4)cn3)nc2n(C2CCCC2)c1=O [Palbociclib] (partner 0.5 µM)
Procedure, shortened: as §1

Cell Line	relative viability ([1]; first compound 0.002 µM)	relative viability ([1]; first compound 0.006325 µM)	relative viability ([1]; first compound 0.02 µM)	relative viability ([1]; first compound 0.06325 µM)	relative viability ([1]; first compound 0.2 µM)	relative viability ([2]; first compound 0.002 µM)	relative viability ([2]; first compound 0.006325 µM)	relative viability ([2]; first compound 0.02 µM)	relative viability ([2]; first compound 0.06325 µM)	relative viability ([2]; first compound 0.2 µM)	relative viability ([3]; first compound 0.002 µM)	relative viability ([3]; first compound 0.006325 µM)	relative viability ([3]; first compound 0.02 µM)	relative viability ([3]; first compound 0.06325 µM)	relative viability ([3]; first compound 0.2 µM)	relative viability ([4]; first compound 0.08 µM)	relative viability ([4]; first compound 0.253 µM)	relative viability ([4]; first compound 0.8 µM)	relative viability ([4]; first compound 2.53 µM)	relative viability ([4]; first compound 8 µM)
HCC-44	0.969	1.03	0.956	1.01	1.01	1.04	1.02	1.01	0.99	0.919	0.672	0.536	0.709	0.536	0.368	0.966	1.03	0.945	0.976	0.91
HCC-78	0.856	0.94	0.669	0.452	0.336	0.46	0.453	0.479	0.475	0.441	0.225	0.22	0.195	0.206	0.193	0.452	0.409	0.4	0.435	0.434
HCC-366	0.243	0.356	0.38	0.166	0.142	0.402	0.349	0.232	0.102	0.0378	0.201	0.147	0.124	0.0657	0.102	0.361	0.491	0.326	0.402	0.384
HCC-827	0.601	0.611	0.608	0.479	0.411	0.473	0.518	0.47	0.36	0.171	1.28	0.997	0.932	0.654	0.63	0.416	0.551	0.374	0.509	0.525
HOP-62	0.378	0.464	0.542	0.298	0.36	0.467	0.45	0.383	0.288	0.147	0.967	0.58	0.604	0.236	0.254	0.403	0.535	0.461	0.475	0.52
IA-LM	0.85	0.729	0.783	0.348	0.738	–	–	–	–	–	0.371	0.331	0.219	0.116	0.0809	–	–	–	–	–
LC-2-ad	0.825	0.749	0.747	0.864	0.852	0.434	0.48	0.51	0.454	0.426	0.291	–	0.428	0.389	0.262	0.458	0.479	0.45	0.499	0.511
LCLC-97TM1	0.383	0.416	0.319	0.256	0.093	0.217	0.252	0.194	0.161	0.0966	0.252	0.151	0.169	0.145	0.12	0.213	0.252	0.219	–	0.232
LCLC-103H	0.823	0.743	0.647	0.571	0.395	0.483	0.494	0.45	0.414	0.373	0.611	0.583	0.602	0.577	0.498	0.485	0.455	0.455	0.45	0.452
LK-2	0.61	0.836	0.491	0.328	0.17	0.513	0.653	0.491	0.212	0.167	0.479	0.547	0.499	0.33	0.251	0.487	0.73	0.768	0.792	0.898
LOU-NH91	0.832	0.901	0.886	0.608	0.632	0.532	0.548	0.549	0.524	0.52	0.586	0.499	0.525	0.494	0.496	0.55	0.534	0.551	0.562	0.536
LU99A	0.208	0.232	0.216	0.181	0.172	0.419	0.37	0.297	0.216	0.181	0.299	0.285	0.269	0.222	0.179	0.363	0.447	0.403	–	0.367
NCI-H522	0.691	0.664	0.68	0.464	0.446	0.924	1	0.99	0.754	0.674	–	–	–	–	–	0.91	0.946	0.891	1.04	1.16
NCI-H596	0.656	0.719	0.527	0.417	0.329	–	–	–	–	–	0.373	0.348	0.383	0.352	0.299	–	–	–	–	–
NCI-H1299	1.01	0.997	1.04	0.568	0.742	–	–	–	–	–	0.794	0.701	0.659	0.351	0.253	–	–	–	–	–
NCI-H1563	–	–	–	–	–	–	–	–	–	–	0.682	0.624	0.625	0.651	0.573	–	–	–	–	–
NCI-H1648	0.998	0.78	0.799	0.473	0.246	0.284	0.283	0.231	0.206	0.215	–	–	–	–	–	–	0.264	0.305	0.284	0.27
NCI-H1703	–	0.292	0.389	0.198	0.285	–	–	–	–	–	–	–	0.257	0.228	0.192	–	–	–	–	–
NCI-H2342	0.411	0.369	0.501	0.376	0.382	0.556	0.535	0.505	0.454	0.466	–	–	–	–	–	0.472	0.509	0.575	0.549	0.505
SW 900	1.22	0.853	0.689	0.502	0.424	0.683	0.46	0.45	0.248	0.199	–	–	–	–	–	0.542	0.505	0.471	0.509	0.542
